This is an account of results in publication PMC6459903, “The enzymes OSC1 and CYP716A263 produce a high variety of triterpenoids in the latex of Taraxacum koksaghyz” (Scientific Reports, 2019).

Molecules are shown by their SMILES.

Holding throughout (type): cell-based
In one experiment the target is T1, CYP716A263 (Taraxacum kok-saghyz, UniProt A0A3S5GS06).
T1 construct: full-length 473 residues (1,422 bp), from latex cDNA; transient expression in Nicotiana benthamiana leaves with host reductase
T1 sequence (A0A3S5GS06 1-473): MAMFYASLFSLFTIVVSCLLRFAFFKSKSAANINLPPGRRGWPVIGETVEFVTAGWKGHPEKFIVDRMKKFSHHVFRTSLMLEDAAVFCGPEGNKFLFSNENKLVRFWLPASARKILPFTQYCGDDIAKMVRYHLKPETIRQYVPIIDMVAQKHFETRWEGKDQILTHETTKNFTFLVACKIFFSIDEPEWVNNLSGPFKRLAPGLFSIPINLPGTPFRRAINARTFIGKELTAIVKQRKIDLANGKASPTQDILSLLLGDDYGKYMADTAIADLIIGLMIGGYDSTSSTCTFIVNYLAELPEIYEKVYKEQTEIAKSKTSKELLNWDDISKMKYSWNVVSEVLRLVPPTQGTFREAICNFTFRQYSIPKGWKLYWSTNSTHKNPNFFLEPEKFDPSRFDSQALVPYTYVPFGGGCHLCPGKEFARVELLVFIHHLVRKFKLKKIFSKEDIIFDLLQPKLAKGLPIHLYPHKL
In words: co-expression in N. benthamiana leaves, GC-MS. To be noted: C-3 oxidation to lupenone; lupeol formed in situ by co-expressed TkLUP with Tkhmgrc1.

The target in another experiment is T2, TkLUP (Taraxacum kok-saghyz, UniProt A0A3B1EU92).
T2 construct: gene Lup; full-length cDNA; transient expression in Nicotiana benthamiana leaves
T2 sequence (A0A3B1EU92 1-758): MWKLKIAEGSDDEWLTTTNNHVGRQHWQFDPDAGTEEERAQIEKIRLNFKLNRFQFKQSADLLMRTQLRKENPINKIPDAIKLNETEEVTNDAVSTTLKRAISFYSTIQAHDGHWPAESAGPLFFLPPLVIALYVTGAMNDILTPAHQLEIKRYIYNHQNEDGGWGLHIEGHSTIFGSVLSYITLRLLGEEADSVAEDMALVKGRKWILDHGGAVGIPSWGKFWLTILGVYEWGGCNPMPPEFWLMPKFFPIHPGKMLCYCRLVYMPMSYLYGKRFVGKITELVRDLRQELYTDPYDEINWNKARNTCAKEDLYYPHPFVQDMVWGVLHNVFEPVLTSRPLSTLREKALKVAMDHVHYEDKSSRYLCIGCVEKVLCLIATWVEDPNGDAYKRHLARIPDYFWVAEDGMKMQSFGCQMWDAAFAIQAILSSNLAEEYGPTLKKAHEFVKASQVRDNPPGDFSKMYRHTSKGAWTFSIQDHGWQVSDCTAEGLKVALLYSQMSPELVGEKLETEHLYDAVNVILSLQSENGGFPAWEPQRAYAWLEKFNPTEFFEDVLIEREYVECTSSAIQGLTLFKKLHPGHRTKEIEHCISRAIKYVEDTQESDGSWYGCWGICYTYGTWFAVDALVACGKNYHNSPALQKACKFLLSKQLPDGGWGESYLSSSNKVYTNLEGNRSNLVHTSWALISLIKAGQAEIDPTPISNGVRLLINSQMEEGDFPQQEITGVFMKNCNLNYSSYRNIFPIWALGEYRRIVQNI
In words: transient expression in N. benthamiana leaves, GC-MS. To be noted: with Tkhmgrc1; endogenous 2,3-oxidosqualene; predominant product.

The next experiment concerns the target T3, CYP716A263/AtR2 (Taraxacum kok-saghyz, UniProt A0A3S5GS06).
T3 construct: full-length P450, 473 residues, co-expressed with Arabidopsis thaliana reductase AtR2 in S. cerevisiae CEN.PK2-1C; with NADPH--cytochrome P450 reductase 2 (Arabidopsis thaliana)
In words: co-expression in S. cerevisiae, GC-MS. To be noted: C-3 oxidation to taraxasterone; taraxasterol formed in situ by co-expressed TkLUPN-TkOSC1C; AtR2 reductase.

The next experiment deals with T4, TkOSC6 (Taraxacum kok-saghyz, UniProt A0A3S7RZ84).
T4 construct: gene OSC6; unmodified full-length protein; expressed in S. cerevisiae CEN.PK2-1C and N. benthamiana
T4 sequence (A0A3S7RZ84 1-758): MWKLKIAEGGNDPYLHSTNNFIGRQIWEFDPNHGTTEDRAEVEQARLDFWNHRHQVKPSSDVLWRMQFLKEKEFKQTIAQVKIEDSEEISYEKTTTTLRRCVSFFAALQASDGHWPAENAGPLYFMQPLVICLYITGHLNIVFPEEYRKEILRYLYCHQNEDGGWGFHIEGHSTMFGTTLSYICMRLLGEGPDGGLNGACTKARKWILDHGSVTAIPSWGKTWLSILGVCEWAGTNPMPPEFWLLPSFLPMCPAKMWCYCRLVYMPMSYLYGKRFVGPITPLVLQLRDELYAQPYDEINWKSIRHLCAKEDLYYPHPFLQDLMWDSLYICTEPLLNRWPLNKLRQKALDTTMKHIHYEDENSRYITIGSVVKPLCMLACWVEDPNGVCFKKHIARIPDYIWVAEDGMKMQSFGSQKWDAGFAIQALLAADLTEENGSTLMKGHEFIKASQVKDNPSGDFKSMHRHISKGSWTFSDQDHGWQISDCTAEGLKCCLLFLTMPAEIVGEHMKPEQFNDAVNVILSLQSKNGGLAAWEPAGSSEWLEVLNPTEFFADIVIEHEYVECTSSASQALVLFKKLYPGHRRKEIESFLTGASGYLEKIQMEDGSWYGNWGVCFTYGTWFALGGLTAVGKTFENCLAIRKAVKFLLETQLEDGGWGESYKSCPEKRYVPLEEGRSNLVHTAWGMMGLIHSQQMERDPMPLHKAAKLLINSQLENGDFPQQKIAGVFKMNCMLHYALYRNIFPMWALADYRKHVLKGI
In words: expression in S. cerevisiae, GC-MS. As to conditions: endogenous 2,3-oxidosqualene as substrate; erg7 repressed by CuSO4; main product.

T3 sequence (A0A3S5GS06 1-473): as the sequence (A0A3S5GS06 1-473) above
T3 sequence (Q9SUM3 whole entry partner): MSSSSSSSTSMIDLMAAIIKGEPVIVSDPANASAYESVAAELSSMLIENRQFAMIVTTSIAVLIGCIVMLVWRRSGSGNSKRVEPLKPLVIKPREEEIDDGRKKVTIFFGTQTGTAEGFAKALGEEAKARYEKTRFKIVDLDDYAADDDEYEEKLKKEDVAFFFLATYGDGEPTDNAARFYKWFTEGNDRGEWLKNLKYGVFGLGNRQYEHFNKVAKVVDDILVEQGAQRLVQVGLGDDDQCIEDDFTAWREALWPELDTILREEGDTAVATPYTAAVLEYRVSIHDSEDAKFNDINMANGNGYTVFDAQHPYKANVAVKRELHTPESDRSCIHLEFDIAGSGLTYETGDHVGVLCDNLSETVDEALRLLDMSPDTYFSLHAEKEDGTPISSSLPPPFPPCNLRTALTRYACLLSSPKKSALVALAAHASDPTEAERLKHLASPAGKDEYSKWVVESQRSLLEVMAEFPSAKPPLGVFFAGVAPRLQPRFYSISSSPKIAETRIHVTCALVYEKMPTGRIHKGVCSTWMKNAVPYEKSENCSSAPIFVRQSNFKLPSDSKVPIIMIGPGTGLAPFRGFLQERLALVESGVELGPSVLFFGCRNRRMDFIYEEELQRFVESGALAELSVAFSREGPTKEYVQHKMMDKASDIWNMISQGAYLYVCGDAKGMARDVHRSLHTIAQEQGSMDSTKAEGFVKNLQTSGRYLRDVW

For `C=C(C)[C@@H]1CC[C@]2(C)CC[C@]3(C)[C@H](CC[C@@H]4[C@@]5(C)CC[C@H](O)C(C)(C)[C@@H]5CC[C@]43C)[C@@H]12` [lupeol], the “co-expression in N. benthamiana leaves, GC-MS” value at CYP716A263 is “CYP716A263 is capable of converting lupeol into lupenone and exhibits a C-3 oxidation activity”. The “transient expression in N. benthamiana leaves, GC-MS” value at TkLUP is given as “TkLUP in combination with Tkhmgrc1 led to the predominant production of lupeol”.

Consider `C=C1CC[C@]2(C)CC[C@]3(C)[C@H](CC[C@@H]4[C@@]5(C)CC[C@H](O)C(C)(C)[C@@H]5CC[C@]43C)[C@H]2[C@@H]1C` [taraxasterol], for which the “co-expression in S. cerevisiae, GC-MS” value at CYP716A263/AtR2 is “taraxasterol, as the most abundant product, was converted to taraxasterone”.

On to `CC1(C)CC[C@]2(C)CC[C@]3(C)C(=CC[C@@H]4[C@@]5(C)CC[C@H](O)C(C)(C)[C@@H]5CC[C@]43C)[C@@H]2C1` [β-amyrin], for which the “expression in S. cerevisiae, GC-MS” value at TkOSC6 is on record as “TkOSC6 expression in yeast led to the identification of β-amyrin as main product”.
